Measured values as given in patent US9902741.
Where two headings read alike, the source gives them in different places.

Settings: 14-membered ring, Cs2CO3, DMF, 85.0 °C
[1] = from O=C(NC[C@H](O)CCl)c1cnn2ccc(N3CC(F)(F)CC3c3cc(F)ccc3O)nc12, ether bond, 20.0 mM

| Structure (SMILES) | ring closure, isolated yield [1] [%] | ring closure, isolated yield (from N—((S)-3-chloro-2-hydroxypropyl)-5-4R)-2-(5-fluoro-2-oxo-1,2-dihydropyridin-3-yl)pyrrolidin-1-yl)pyrazolo[1,5-a]pyrimidine-3-carboxamide hydrochloride, other bond, […]) [%] |
| --- | --- | --- |
| O=C1NC[C@H](O)COc2ccc(F)cc2C2CC(F)(F)CN2c2ccn3ncc1c3n2 (single isomer, unassigned; diastereomer 1) | 20 |  |
| O=C1NC[C@H](O)Cn2cc(F)cc(c2=O)[C@H]2CCCN2c2ccn3ncc1c3n2 |  | 12 |
| O=C1NC[C@H](O)COc2ccc(F)cc2C2CC(F)(F)CN2c2ccn3ncc1c3n2 (single isomer, unassigned; diastereomer 2) | 24 |  |
